# From ChEMBL document CHEMBL6127049, “Discovery of the selective and nanomolar inhibitor of DPP-4 more potent than sitagliptin by structure-guided rational design” (Eur J Med Chem, 2024)
# Active and inactive are the calls of the source. The rule behind the calls is not given here.
# What was measured:
# Dipeptidyl peptidase 4 = Dipeptidyl peptidase 4 (Homo sapiens, UniProt P27487); assay: Inhibition of DPP4 (unknown origin) assessed as hydrolysis rate using Gly-pro-p-nitroanilide as substrate measured after 20 mins incubation by fluorometric assay
# Dipeptidyl peptidase 8 = Dipeptidyl peptidase 8 (Homo sapiens, UniProt Q6V1X1); assay: Inhibition of DPP8 (unknown origin) assessed as hydrolysis rate using Gly-pro-p-nitroanilide as substrate measured after 20 mins incubation by […] assay
# Dipeptidyl peptidase 9 = Dipeptidyl peptidase 9 (Homo sapiens, UniProt Q86TI2); assay: Inhibition of DPP9 (unknown origin) assessed as hydrolysis rate using Gly-pro-p-nitroanilide as substrate measured after 20 mins incubation by […] assay
# [1] = Acute toxicity in Balb/C mouse assessed as changes in general appearance at 1250 to 2000 mg/kg, po; format: organism-based; details: in vivo, dose 1250-2000 mg/kg
# [2] = Acute toxicity in Balb/C mouse assessed as morphological changes in fur at 1250 to 2000 mg/kg, po; format: organism-based; details: in vivo, dose 1250-2000 mg/kg
# [3] = Acute toxicity in Balb/C mouse assessed as morphological changes in nose at 1250 to 2000 mg/kg, po; format: organism-based; details: in vivo, dose 1250-2000 mg/kg
# [4] = Acute toxicity in Balb/C mouse assessed as morphological changes in eyes at 1250 to 2000 mg/kg, po; format: organism-based; details: in vivo, dose 1250-2000 mg/kg
# [5] = Acute toxicity in Balb/C mouse assessed as morphological changes in convulsions at 1250 to 2000 mg/kg, po; format: organism-based; details: in vivo, dose 1250-2000 mg/kg
# [6] = Acute toxicity in Balb/C mouse assessed as morphological changes in tremors at 1250 to 2000 mg/kg, po; format: organism-based; details: in vivo, dose 1250-2000 mg/kg
# [7] = Acute toxicity in Balb/C mouse assessed as morphological changes in diarrhea at 1250 to 2000 mg/kg, po; format: organism-based; details: in vivo, dose 1250-2000 mg/kg
# [8] = Acute toxicity in Balb/C mouse assessed as morphological changes in unusual behavior at 1250 to 2000 mg/kg, po; format: organism-based; details: in vivo, dose 1250-2000 mg/kg
# Rattus norvegicus [9] = assay: Anti-diabetic activity in normal Wistar rat model assessed as blood glucose level at 10 mg/kg, po followed by treated administered 3 mg/kg orally measured after 30 mins by Oral glucose tolerance test (reference value: […] 176.14 + /- 4.04 mg/dL); format: functional; details: 0.5 h
# Rattus norvegicus [10] = assay: Anti-diabetic activity in normal Wistar rat model assessed as blood glucose level at 10 mg/kg, po followed by treated administered 3 mg/kg orally measured after 60 mins by Oral glucose tolerance test (reference value: 153.74 + /- 3.94 mg/dL); format: functional; details: 1 h
# Rattus norvegicus [11] = assay: Anti-diabetic activity in normal Wistar rat model assessed as blood glucose level at 10 mg/kg, po followed by treated administered 3 mg/kg orally measured after 120 mins by Oral glucose tolerance test (reference value: 126.5 + /- 3.90 mg/dL); format: functional; details: 2 h
# Rattus norvegicus [12] = assay: Anti-diabetic activity in normal Wistar rat model assessed as blood glucose level at 20 mg/kg, po followed by treated administered 3 mg/kg orally measured after 30 mins by Oral glucose tolerance test (reference value: 176.14 + /- 4.04 mg/dL); format: functional; details: 0.5 h
# Rattus norvegicus [13] = assay: Anti-diabetic activity in normal Wistar rat model assessed as blood glucose level at 20 mg/kg, po followed by treated administered 3 mg/kg orally measured after 90 mins by Oral glucose tolerance test (reference value: 134.11 + /- 4.64 mg/dL); format: functional; details: 1.5 h
# Rattus norvegicus [14] = assay: Anti-diabetic activity in normal Wistar rat model assessed as blood glucose level at 20 mg/kg, po followed by treated administered 3 mg/kg orally measured immediately after administration by Oral glucose tolerance test (reference value: 105.12 mg/dL); format: functional
# Rattus norvegicus [15] = assay: Anti-diabetic activity in STZ-induced type 2 diabetes male Wistar albino rat model assessed as fasting blood glucose level at 20 mg/kg, po measured on day 1; format: functional; details: time 1 day
# Rattus norvegicus [16] = assay: Anti-diabetic activity in STZ-induced type 2 diabetes male Wistar albino rat model assessed as fasting blood glucose level at 20 mg/kg, po measured on day 7; format: functional; details: time 7 day
# Rattus norvegicus [17] = assay: Anti-diabetic activity in STZ-induced type 2 diabetes male Wistar albino rat model assessed as fasting blood glucose level at 20 mg/kg, po measured on day 14; format: functional; details: time 14 day
# Rattus norvegicus [18] = assay: Anti-diabetic activity in STZ-induced type 2 diabetes male Wistar albino rat model assessed as fasting blood glucose level at 20 mg/kg, po measured on day 21; format: functional; details: time 21 day
# Rattus norvegicus [19] = assay: Anti-diabetic activity in STZ-induced type 2 diabetes male Wistar albino rat model assessed as fasting blood glucose level at 20 mg/kg, po measured on day 28; format: functional; details: time 28 day
# Rattus norvegicus [20] = assay: Antihyperlipidemic effect in STZ-induced type 2 diabetes male Wistar albino rat model assessed as total cholesterol level at 10 mg/kg, po measured after 4 weeks (reference value: 227.04 +/- 4.10 mg/dL); format: functional
# Rattus norvegicus [21] = assay: Antihyperlipidemic effect in STZ-induced type 2 diabetes male Wistar albino rat model assessed as HDL level at 10 mg/kg, po measured after 4 weeks (reference value: 25.54 +/- 2.62 mg/dL); format: functional
# Rattus norvegicus [22] = assay: Antihyperlipidemic effect in STZ-induced type 2 diabetes male Wistar albino rat model assessed as triglyceride level at 10 mg/kg, po measured after 4 weeks (reference value: 190.23 +/- 4.37 mg/dL); format: functional
# Rattus norvegicus [23] = assay: Antihyperlipidemic effect in STZ-induced type 2 diabetes male Wistar albino rat model assessed as HDL level at 20 mg/kg, po measured after 4 weeks (reference value: 25.54 +/- 2.62 mg/dL); format: functional
# Rattus norvegicus [24] = assay: Antihyperlipidemic effect in STZ-induced type 2 diabetes male Wistar albino rat model assessed as LDL level at 20 mg/kg, po measured after 4 weeks (reference value: 184.65 +/- 4.57 mg/dL); format: functional
# Rattus norvegicus [25] = assay: Antihyperlipidemic effect in STZ-induced type 2 diabetes male Wistar albino rat model assessed as triglyceride level at 20 mg/kg, po measured after 4 weeks (reference value: 190.23 +/- 4.37 mg/dL); format: functional
# Rattus norvegicus [26] = assay: Reduction of alkaline phosphatase (ALP) level in STZ-induced type 2 diabetes male Wistar albino rat model at 10 mg/kg, po measured after 4 weeks by hepatic function test; format: functional, organism-based
# Rattus norvegicus [27] = assay: Reduction of serum glutamate pyruvate transaminase (SGPT) level in STZ-induced type 2 diabetes male Wistar albino rat model at 10 mg/kg, po measured after 4 weeks by hepatic function test; format: functional, organism-based
# Rattus norvegicus [28] = assay: Reduction of serum glutamate oxaloacetate transaminase (SGOT) level in STZ-induced type 2 diabetes male Wistar albino rat model at 10 mg/kg, po measured after 4 weeks by hepatic function test; format: functional, organism-based
# Rattus norvegicus [29] = assay: Reduction of serum glutamate pyruvate transaminase (SGPT) level in STZ-induced type 2 diabetes male Wistar albino rat model at 20 mg/kg, po measured after 4 weeks by hepatic function test; format: functional, organism-based
# Rattus norvegicus [30] = assay: Reduction of serum glutamate oxaloacetate transaminase (SGOT) level in STZ-induced type 2 diabetes male Wistar albino rat model at 20 mg/kg, po measured after 4 weeks by hepatic function test; format: functional, organism-based
# Rattus norvegicus [31] = assay: Reduction of insulin level in STZ-induced type 2 diabetes male Wistar albino rat model at 20 mg/kg, po measured after 4 weeks by hepatic function test; format: functional, organism-based
# Sequence of Dipeptidyl peptidase 4 (P27487 whole entry): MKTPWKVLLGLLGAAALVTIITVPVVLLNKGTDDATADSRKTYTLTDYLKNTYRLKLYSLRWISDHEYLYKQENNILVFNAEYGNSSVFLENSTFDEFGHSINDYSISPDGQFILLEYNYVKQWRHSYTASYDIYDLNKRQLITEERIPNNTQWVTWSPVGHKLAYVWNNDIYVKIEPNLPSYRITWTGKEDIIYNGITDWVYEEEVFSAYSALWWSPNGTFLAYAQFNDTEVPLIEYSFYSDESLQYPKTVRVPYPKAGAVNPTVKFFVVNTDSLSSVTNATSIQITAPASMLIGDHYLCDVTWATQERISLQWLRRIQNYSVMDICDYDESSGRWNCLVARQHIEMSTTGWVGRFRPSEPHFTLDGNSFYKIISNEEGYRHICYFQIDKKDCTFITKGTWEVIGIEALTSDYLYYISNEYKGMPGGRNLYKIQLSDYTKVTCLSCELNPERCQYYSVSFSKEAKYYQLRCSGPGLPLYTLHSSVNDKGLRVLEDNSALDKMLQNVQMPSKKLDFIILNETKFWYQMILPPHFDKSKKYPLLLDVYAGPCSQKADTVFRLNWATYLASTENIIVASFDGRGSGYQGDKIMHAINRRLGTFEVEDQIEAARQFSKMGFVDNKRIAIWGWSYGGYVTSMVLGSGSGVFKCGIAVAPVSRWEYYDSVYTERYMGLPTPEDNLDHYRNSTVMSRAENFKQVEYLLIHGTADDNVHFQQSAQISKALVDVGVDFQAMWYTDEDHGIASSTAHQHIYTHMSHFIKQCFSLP
# Sequence of Dipeptidyl peptidase 9 (Q86TI2 whole entry): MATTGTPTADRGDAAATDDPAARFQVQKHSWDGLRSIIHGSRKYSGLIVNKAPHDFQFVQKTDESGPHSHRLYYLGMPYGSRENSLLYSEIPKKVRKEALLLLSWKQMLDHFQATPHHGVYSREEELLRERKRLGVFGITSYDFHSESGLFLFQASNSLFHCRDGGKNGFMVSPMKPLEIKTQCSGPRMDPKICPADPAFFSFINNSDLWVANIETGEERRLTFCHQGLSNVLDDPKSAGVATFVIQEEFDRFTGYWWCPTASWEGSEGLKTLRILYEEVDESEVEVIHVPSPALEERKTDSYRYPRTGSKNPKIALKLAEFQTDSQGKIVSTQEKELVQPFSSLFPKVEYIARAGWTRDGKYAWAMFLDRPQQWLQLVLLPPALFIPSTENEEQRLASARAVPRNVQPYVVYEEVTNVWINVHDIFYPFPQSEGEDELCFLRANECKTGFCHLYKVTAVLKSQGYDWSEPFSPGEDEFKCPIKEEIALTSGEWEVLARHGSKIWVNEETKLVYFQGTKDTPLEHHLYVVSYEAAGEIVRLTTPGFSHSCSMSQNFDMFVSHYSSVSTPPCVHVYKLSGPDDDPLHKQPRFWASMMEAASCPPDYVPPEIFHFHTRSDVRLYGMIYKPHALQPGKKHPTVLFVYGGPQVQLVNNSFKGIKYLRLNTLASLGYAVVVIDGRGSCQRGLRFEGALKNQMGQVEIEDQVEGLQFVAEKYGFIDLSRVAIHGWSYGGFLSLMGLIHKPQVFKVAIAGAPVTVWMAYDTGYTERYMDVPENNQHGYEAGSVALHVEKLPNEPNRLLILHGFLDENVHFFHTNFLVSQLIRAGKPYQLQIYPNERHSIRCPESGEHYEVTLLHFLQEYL
# Sequence of Dipeptidyl peptidase 8 (Q6V1X1 whole entry): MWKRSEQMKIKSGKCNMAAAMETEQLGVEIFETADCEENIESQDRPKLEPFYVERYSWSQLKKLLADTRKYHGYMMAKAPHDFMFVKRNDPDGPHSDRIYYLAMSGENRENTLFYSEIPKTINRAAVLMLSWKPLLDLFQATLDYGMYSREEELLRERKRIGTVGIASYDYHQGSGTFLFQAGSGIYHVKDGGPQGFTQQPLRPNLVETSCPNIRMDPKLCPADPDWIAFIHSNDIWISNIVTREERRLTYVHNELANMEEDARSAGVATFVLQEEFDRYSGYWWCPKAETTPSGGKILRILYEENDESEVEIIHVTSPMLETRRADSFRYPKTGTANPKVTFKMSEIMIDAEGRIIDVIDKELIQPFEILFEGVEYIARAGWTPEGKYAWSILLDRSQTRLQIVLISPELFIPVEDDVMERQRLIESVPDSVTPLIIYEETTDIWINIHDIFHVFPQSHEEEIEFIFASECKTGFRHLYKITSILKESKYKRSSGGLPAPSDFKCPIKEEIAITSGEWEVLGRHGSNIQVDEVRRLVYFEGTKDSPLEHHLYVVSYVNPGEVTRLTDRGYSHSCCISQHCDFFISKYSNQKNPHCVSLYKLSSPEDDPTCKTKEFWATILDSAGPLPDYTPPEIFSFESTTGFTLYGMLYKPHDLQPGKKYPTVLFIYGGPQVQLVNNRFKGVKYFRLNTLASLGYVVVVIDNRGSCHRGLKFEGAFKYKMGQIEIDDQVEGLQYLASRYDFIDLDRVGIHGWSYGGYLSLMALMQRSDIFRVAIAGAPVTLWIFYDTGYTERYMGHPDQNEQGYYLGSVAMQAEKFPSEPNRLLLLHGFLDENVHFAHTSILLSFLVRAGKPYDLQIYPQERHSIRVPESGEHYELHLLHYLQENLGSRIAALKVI
structure (smiles),measurement,setting,value
CC1=C([N+](=O)[O-])C(c2ccc(F)c(F)c2)N=C(N)N1C(=O)CN1Cc2cn(S(C)(=O)=O)nc2C1 (centres undefined),IC50,Dipeptidyl peptidase 4,55 nM
same,IC50,Dipeptidyl peptidase 8,2900 nM
same,IC50,Dipeptidyl peptidase 9,864 nM
same,Activity,[1],Non-Toxic
same,Activity,[2],Non-Toxic
same,Activity,[3],Non-Toxic
same,Activity,[4],Non-Toxic
same,Activity,[5],Non-Toxic
same,Activity,[6],Non-Toxic
same,Activity,[7],Non-Toxic
same,Activity,[8],Non-Toxic
same,Activity,Rattus norvegicus [9],123.04 mg/dL
same,Activity,Rattus norvegicus [10],118.35 mg/dL
same,Activity,Rattus norvegicus [11],115.78 mg/dL
same,Activity,Rattus norvegicus [12],119.42 mg/dL
same,Activity,Rattus norvegicus [13],110.57 mg/dL
same,Activity,Rattus norvegicus [14],101.87 mg/dL
same,Activity,Rattus norvegicus [15],294 mg/dL
same,Activity,Rattus norvegicus [16],188 mg/dL
same,Activity,Rattus norvegicus [17],167 mg/dL
same,Activity,Rattus norvegicus [18],134 mg/dL
same,Activity,Rattus norvegicus [19],117 mg/dL
same,Activity,Rattus norvegicus [20],153.02 mg/dL
same,Activity,Rattus norvegicus [21],46.32 mg/dL
same,Activity,Rattus norvegicus [22],150.32 mg/dL
same,Activity,Rattus norvegicus [23],54.1 mg/dL
same,Activity,Rattus norvegicus [24],114.54 mg/dL
same,Activity,Rattus norvegicus [25],118.76 mg/dL
same,Activity,Rattus norvegicus [26],Active
same,Activity,Rattus norvegicus [27],Active
same,Activity,Rattus norvegicus [28],Active
same,Activity,Rattus norvegicus [29],Active
same,Activity,Rattus norvegicus [30],Active
same,Activity,Rattus norvegicus [31],Active
